Measurements reported in ChEMBL document CHEMBL3421607, “Design, synthesis and antibacterial activity of cinnamaldehyde derivatives as inhibitors of the bacterial cell division protein FtsZ” (Eur J Med Chem, 2015).
In brackets after ≈: the same amount, converted by molar mass.

The compounds below were run on Staphylococcus aureus (assay: Antibacterial activity against penicillin-resistant Staphylococcus aureus clinical isolates after 24 hrs by broth microdilution method). Conditions: not given.
Format: functional

`CCCCCCNC(=O)/C=C/c1ccc(Cl)cc1Cl` and `CCCNC(=O)/C=C/c1ccc([N+](=O)[O-])cc1` cannot be ordered by MIC: > 128 µg/mL for the first, > 128 µg/mL for the second.

`COc1ccc(/C=C/C(=O)n2c(C)nc3ccccc32)cc1` and `COc1ccc(/C=C/C(=O)N(C)C)cc1OC` are the same in MIC: 64 µg/mL (≈ 219 µM) for the first, 64 µg/mL (≈ 272 µM) for the second.

With `COc1cc(/C=C/C(=O)N2CCOCC2)cc(OC)c1OC` the MIC was > 128 µg/mL.

These compounds were tested on Streptococcus pyogenes (assay: Antibacterial activity against penicillin-resistant Streptococcus pyogenes clinical isolates after 24 hrs by broth microdilution method). Conditions: not given.
Format: functional

In the case of `CCCCCCNC(=O)/C=C/c1ccc(Cl)cc1Cl`, the MIC was > 128 µg/mL.

The compounds below were run on Streptococcus pyogenes (assay: Antibacterial activity against penicillin-susceptible Streptococcus pyogenes clinical isolates after 24 hrs by broth microdilution method). Conditions: not given.
Format: functional

First: CCCCCCNC(=O)/C=C/c1ccc(Cl)cc1Cl
Second: COc1ccc(/C=C/C(=O)N(C)C)cc1OC
The MIC of the first is lower: 128 µg/mL (≈ 426 µM) for the first, > 128 µg/mL for the second.

`COc1ccc(/C=C/C(=O)n2c(C)nc3ccccc32)cc1` and `COc1cc(/C=C/C(=O)N2CCOCC2)cc(OC)c1OC` cannot be ordered by MIC: > 128 µg/mL for the first, > 128 µg/mL for the second.

These compounds were tested on Pseudomonas aeruginosa (assay: microbe, parasite or virus in culture). Conditions: ATCC 27853, 5 h.
Format: functional
Description: Inhibition of cell division in penicillin-susceptible Pseudomonas aeruginosa ATCC 27853 assessed as filamentation after 5 hrs by phase contrast microscopy

`CCCCCCNC(=O)/C=C/c1ccc(Cl)cc1Cl` and `CCCNC(=O)/C=C/c1ccc([N+](=O)[O-])cc1` cannot be ordered by MIC: > 128 µg/mL for the first, > 128 µg/mL for the second.

`COc1ccc(/C=C/C(=O)n2c(C)nc3ccccc32)cc1` and `COc1ccc(/C=C/C(=O)N(C)C)cc1OC` cannot be ordered by MIC: > 128 µg/mL for the first, > 128 µg/mL for the second.

`COc1cc(/C=C/C(=O)N2CCOCC2)cc(OC)c1OC` was tested, and the MIC was > 128 µg/mL.

These compounds were tested on Staphylococcus aureus (assay: microbe, parasite or virus in culture). Conditions: ATCC 25923, 24 h.
Format: functional
Description: Antibacterial activity against penicillin-susceptible Staphylococcus aureus ATCC 25923 after 24 hrs by broth microdilution method

`CCCCCCNC(=O)/C=C/c1ccc(Cl)cc1Cl` and `CCCNC(=O)/C=C/c1ccc([N+](=O)[O-])cc1` cannot be ordered by MIC: > 128 µg/mL for the first, > 128 µg/mL for the second.

Compared with `COc1ccc(/C=C/C(=O)n2c(C)nc3ccccc32)cc1`, `COc1ccc(/C=C/C(=O)N(C)C)cc1OC` is 4-fold lower in MIC: 128 µg/mL (≈ 438 µM) for the first, 32 µg/mL (≈ 136 µM) for the second.

In the case of `COc1cc(/C=C/C(=O)N2CCOCC2)cc(OC)c1OC`, the MIC was 64 µg/mL (≈ 208 µM).

These compounds were tested on Bacillus subtilis (assay: microbe, parasite or virus in culture). Conditions: ATCC 9372, 5 h.
Format: functional
Description: Inhibition of cell division in penicillin-susceptible Bacillus subtilis ATCC 9372 assessed as filamentation after 5 hrs by phase contrast microscopy

Going from `CCCCCCNC(=O)/C=C/c1ccc(Cl)cc1Cl` to `CCCNC(=O)/C=C/c1ccc([N+](=O)[O-])cc1`, the MIC rises from 128 µg/mL (≈ 426 µM) to > 128 µg/mL.

`COc1ccc(/C=C/C(=O)n2c(C)nc3ccccc32)cc1` and `COc1ccc(/C=C/C(=O)N(C)C)cc1OC` cannot be ordered by MIC: > 128 µg/mL for the first, > 128 µg/mL for the second.

For `COc1cc(/C=C/C(=O)N2CCOCC2)cc(OC)c1OC`, the MIC was 128 µg/mL (≈ 416 µM).

The compounds below were run on Pseudomonas aeruginosa (assay: microbe, parasite or virus in culture). Conditions: ATCC 27853, 24 h.
Format: functional
Description: Antibacterial activity against penicillin-susceptible Pseudomonas aeruginosa ATCC 27853 after 24 hrs by broth microdilution method

`CCCCCCNC(=O)/C=C/c1ccc(Cl)cc1Cl` and `CCCNC(=O)/C=C/c1ccc([N+](=O)[O-])cc1` cannot be ordered by MIC: > 128 µg/mL for the first, > 128 µg/mL for the second.

`COc1ccc(/C=C/C(=O)n2c(C)nc3ccccc32)cc1` and `COc1ccc(/C=C/C(=O)N(C)C)cc1OC` are the same in MIC: 128 µg/mL (≈ 438 µM) for the first, 128 µg/mL (≈ 544 µM) for the second.

`COc1cc(/C=C/C(=O)N2CCOCC2)cc(OC)c1OC` was tested, and the MIC was > 128 µg/mL.

The compounds below were run on Staphylococcus aureus (assay: microbe, parasite or virus in culture). Conditions: ATCC 29213, 24 h.
Format: functional
Description: Antibacterial activity against methicillin-resistant Staphylococcus aureus ATCC 29213 after 24 hrs by broth microdilution method

`CCCCCCNC(=O)/C=C/c1ccc(Cl)cc1Cl` and `CCCNC(=O)/C=C/c1ccc([N+](=O)[O-])cc1` cannot be ordered by MIC: > 128 µg/mL for the first, > 128 µg/mL for the second.

First: COc1ccc(/C=C/C(=O)n2c(C)nc3ccccc32)cc1
Second: COc1ccc(/C=C/C(=O)N(C)C)cc1OC
The MIC of the first is lower: 128 µg/mL (≈ 438 µM) for the first, > 128 µg/mL for the second.

`COc1cc(/C=C/C(=O)N2CCOCC2)cc(OC)c1OC` was tested, and the MIC was 128 µg/mL (≈ 416 µM).

What follows are compounds tested on Bacillus subtilis (assay: microbe, parasite or virus in culture). Conditions: ATCC 9372, 24 h.
Format: functional
Description: Antibacterial activity against penicillin-susceptible Bacillus subtilis ATCC 9372 after 24 hrs by broth microdilution method

`CCCCCCNC(=O)/C=C/c1ccc(Cl)cc1Cl` and `CCCNC(=O)/C=C/c1ccc([N+](=O)[O-])cc1` cannot be ordered by MIC: > 128 µg/mL for the first, > 128 µg/mL for the second.

`COc1ccc(/C=C/C(=O)n2c(C)nc3ccccc32)cc1` and `COc1ccc(/C=C/C(=O)N(C)C)cc1OC` are the same in MIC: 128 µg/mL (≈ 438 µM) for the first, 128 µg/mL (≈ 544 µM) for the second.

With `COc1cc(/C=C/C(=O)N2CCOCC2)cc(OC)c1OC` the MIC was 128 µg/mL (≈ 416 µM).

The compounds below were run on Escherichia coli (assay: microbe, parasite or virus in culture). Conditions: ATCC 25922, 24 h.
Format: functional
Description: Antibacterial activity against penicillin-susceptible Escherichia coli ATCC 25922 after 24 hrs by broth microdilution method

`CCCCCCNC(=O)/C=C/c1ccc(Cl)cc1Cl` and `CCCNC(=O)/C=C/c1ccc([N+](=O)[O-])cc1` cannot be ordered by MIC: > 128 µg/mL for the first, > 128 µg/mL for the second.

`COc1ccc(/C=C/C(=O)n2c(C)nc3ccccc32)cc1` and `COc1ccc(/C=C/C(=O)N(C)C)cc1OC` are the same in MIC: 128 µg/mL (≈ 438 µM) for the first, 128 µg/mL (≈ 544 µM) for the second.

For `COc1cc(/C=C/C(=O)N2CCOCC2)cc(OC)c1OC`, the MIC was 128 µg/mL (≈ 416 µM).

What follows are compounds tested on Escherichia coli (assay: microbe, parasite or virus in culture). Conditions: ATCC 25922, 5 h.
Format: functional
Description: Inhibition of cell division in penicillin-susceptible Escherichia coli ATCC 25922 assessed as filamentation after 5 hrs by phase contrast microscopy

`CCCCCCNC(=O)/C=C/c1ccc(Cl)cc1Cl` and `CCCNC(=O)/C=C/c1ccc([N+](=O)[O-])cc1` cannot be ordered by MIC: > 128 µg/mL for the first, > 128 µg/mL for the second.

Compared with `COc1ccc(/C=C/C(=O)n2c(C)nc3ccccc32)cc1`, `COc1ccc(/C=C/C(=O)N(C)C)cc1OC` is lower in MIC: > 128 µg/mL for the first, 128 µg/mL (≈ 544 µM) for the second.

Work on `COc1cc(/C=C/C(=O)N2CCOCC2)cc(OC)c1OC` yielded an MIC of 128 µg/mL (≈ 416 µM).

Each compound was assayed on Staphylococcus epidermidis (assay: Antibacterial activity against penicillin-resistant Staphylococcus epidermidis clinical isolates after 24 hrs by broth microdilution method). Conditions: not given.
Format: functional

`CCCCCCNC(=O)/C=C/c1ccc(Cl)cc1Cl` and `COc1ccc(/C=C/C(=O)N(C)C)cc1OC` cannot be ordered by MIC: > 128 µg/mL for the first, > 128 µg/mL for the second.

First: COc1ccc(/C=C/C(=O)n2c(C)nc3ccccc32)cc1
Second: COc1cc(/C=C/C(=O)N2CCOCC2)cc(OC)c1OC
The MIC of the first is lower: 32 µg/mL (≈ 109 µM) for the first, > 128 µg/mL for the second.

What follows are compounds tested on Staphylococcus aureus (assay: microbe, parasite or virus in culture). Conditions: ATCC 25923, 5 h.
Format: functional
Description: Inhibition of cell division in penicillin-susceptible Staphylococcus aureus ATCC 25923 assessed as ballooning after 5 hrs by phase contrast microscopy

`CCCCCCNC(=O)/C=C/c1ccc(Cl)cc1Cl` and `CCCNC(=O)/C=C/c1ccc([N+](=O)[O-])cc1` cannot be ordered by MIC: > 128 µg/mL for the first, > 128 µg/mL for the second.

Going from `COc1ccc(/C=C/C(=O)n2c(C)nc3ccccc32)cc1` to `COc1ccc(/C=C/C(=O)N(C)C)cc1OC`, the MIC falls from > 128 µg/mL to 8 µg/mL (≈ 34 µM).

`COc1cc(/C=C/C(=O)N2CCOCC2)cc(OC)c1OC` gave an MIC of 16 µg/mL (≈ 52.1 µM).
